The source of these data is US7838045B2, “Anti-inflammatory activity of phenethylisothiocyanate (PEITC) and the Barbarea verna seed preparation containing this compound” (priority 2005, dated 2010).

Type in all cases: cell-based, mouse
The subject of assay [1] is IL1β. Nature of the assay: qPCR gene expression in LPS-stimulated RAW264.7 macrophages, IL1β. Conditions: for IL1β % down-regulation: 8 hour treatment. On the procedure: (§1) The mouse monocyte/macrophage cell line RAW 264.7 (obtained from American Type Culture Collection, ATCC, VA USA) was maintained in Dulbecco's Modified Eagle Medium (DMEM) (Invitrogen Inc) supplemented with 100 U/ml penicillin, 100 μg/ml streptomycin, and 10% heat-inactivated fetal calf serum. All incubations were at 37° C. in a 5% CO2 in internal air atmosphere, within the growth chamber.
(§2) Cells were seeded at a density of 0.4×10^6 cells per well (viable cell counts performed with a hemocytometer), in 24 well plates 12 hours prior to treatment. The cells were then treated with test compounds at required concentrations (pre-determined doses) for 2 hours before elicitation with LPS at 1 μg/ml for an additional 6 hours. For every experiment one positive control (cells treated only with LPS) and one negative control (cells without any treatment) were included. For treatments and the controls, two replicates were made in each case. At the end, cells were harvested in Trizol reagent (Invitrogen Inc) for subsequent cellular RNA extraction. The stock of BSP used for the assay was prepared by partially dissolving 50 mg/ml seed preparation in 95% ethyl alcohol for 15 minutes by sonication, where it released PEITC in the clear supernatant that was used for the cell treatment. Cell viability was measured by MTT assay (Mosmann (1983) J. Immunol. Methods 65:55-63).
(§3) Total RNA was extracted from RAW macrophages using Trizol reagent (Invitrogen Inc.) following manufacturer instructions. RNA was quantified spectro-photometrically by absorption measurements at 260 nm and 280 nm using NanoDrop™ system (NanoDrop Technologies Inc. DE, USA). RNA was assessed qualitatively by gel-electrophoresis methods. RNA was then treated with DnaseI (Invitrogen Inc.) also following manufacturer guidelines, to remove any traces of DNA contamination. The cDNAs were synthesized using 3 μg of RNA for each sample using Stratascript™ Reverse Transcriptase, an RNA dependent DNA polymerase (Stratagene, La Jolla, Calif.), following manufacturer protocol. Utmost care was taken to minimize any quantification inaccuracy and pipetting error.
(§4) The synthesized cDNAs were diluted 4-fold. 2 μl of each of these diluted samples were used for PCR reactions of 25 μl final volume. The other components of the PCR reactions were 0.5 μl of 6 μM gene specific primers (oligos synthesized by IDT Inc. USA), 12.5 μl of Brilliant SYBR green PCR master mix (2×) (Stratagene, La Jolla, Calif.) containing green jump-start Taq ready mix. ROX (Stratagene, La Jolla, Calif.) was used as an internal dye. To avoid interference due to genomic DNA contamination, only intron-overlapping primers were selected using the software Primer Express™ (Applied Biosystem, Foster City, Calif.) as follows:
(§5) Forward and reverse pairs of the primers are indicated above as “F” and “R” respectively. PCR amplifications were performed on MX3000p system (Stratagene, La Jolla, Calif.) using 1 cycle at 50° C. for 2 min, 1 cycle of 95° C. for 10 minutes, followed by 40 cycles of 15 seconds at 95° C. and 1 min at 60° C. The dissociation curve was completed with one cycle of 1 minute at 95° C., 30 seconds of 55° C. and 30 seconds of 95° C. NRT (non-RT control) and NTC (no template control) were included in the PCR program as quality control steps.
(§6) RNA expressions for COX2, iNOS and IL1β, normalized with respect to the expression of housekeeping β-actin gene, were analyzed using the ΔΔCt method (software from Stratagene inc, USA) as described by Pfaffl (Pfaffl, 2001, Nucleic Acids Res 29(9):2002-2007). The ΔΔCt values obtained from these analyses were converted [(1−ΔΔCt)×100] to obtain percentage of inhibition (% inhibition or % downregulation) which reflected the anti-inflammatory properties of the test compounds (Table 2, 4). A value of 100% indicates complete inhibition of LPS-stimulated genetic up-regulation. 0% implies absence of any anti-inflammatory activity of the test compound. […]
(Quantitative PCR measures a nucleic acid by following its amplification.)

Assay [2] deals with COX2. The experiment in a line: qPCR gene expression in LPS-stimulated RAW264.7 macrophages, COX2. The note with it: for COX2 % down-regulation: 8 hour treatment. On the procedure:
as §1
as §2, with “The stock of BSP used for the assay was prepared by partially dissolving 50 mg/ml seed preparation in 95% ethyl alcohol for 15 minutes by sonication, where it released PEITC in the clear supernatant that was used for the cell treatment.” left out
as §3, §4, §5
RNA expressions for COX2, iNOS and IL1β, normalized with respect to the expression of housekeeping β-actin gene, were analyzed using the ΔΔCt method (software from Stratagene inc, USA) as described by Pfaffl (Pfaffl, 2001, Nucleic Acids Res 29(9):2002-2007). The ΔΔCt values obtained from these analyses were converted [(1−ΔΔCt)×100] to obtain percentage of inhibition (% inhibition or % downregulation) which reflected the anti-inflammatory properties of the test compounds (Table 2, 4). A value of 100% indicates complete inhibition of LPS-stimulated genetic up-regulation. 0% implies absence of any anti-inflammatory activity of the test compound.

Assay [3] relates to iNOS. The experiment in a line: qPCR gene expression in LPS-stimulated RAW264.7 macrophages, iNOS. Conditions: for iNOS % down-regulation: 8 hour treatment. On the procedure: as §1, §2, §3, §4, §5, §6
Where [4] appears, read: Mus musculus, RAW264.7, pure compound.

Usually IC50 stands for the concentration needed to halve the response being measured.

SMILES strings stand for the structures.

In the case of `C=CCN=C=S` [Allyl], the IL1β % down-regulation in assay [1] (5 μM) is recorded as 86%; in assay [1] (5 μM, listed as allyl), “equally active as PEITC”. In addition, in assay [2] (5 μM), the COX2 % down-regulation result is reported as “Up-regulation”. Also, the iNOS % down-regulation is 76% in assay [3] (5 μM) and “equally active as PEITC” in assay [3] (5 μM, listed as allyl).
Take `CC(C)N=C=S` [Isopropyl]: the IL1β % down-regulation in assay [1] (5 μM) came out at 40%; in assay [1] (10 μM), 59%. Further, the COX2 % down-regulation result in assay [2] (5 μM) and in assay [2] (10 μM) was “Up-regulation” each time. In addition, the iNOS % down-regulation in assay [3] (5 μM) amounted to 9%; in assay [3] (10 μM), 7%.
With `S=C=NCCc1ccccc1` [PEITC, phenethylisothiocyanate], the IL1β % down-regulation in assay [1] (1 μM) came out at 36.5 ± 9.2%; in assay [1] (5 μM), 86.0 ± 9.8%; in assay [1] (10 μM), 92.0 ± 10.4%; in assay [1] (20 μM) it was 100.0 ± 0.0%; in assay [1] (40 μM), 100.0 ± 0.0%; in assay [1] (80 μM), 100.0 ± 0.0%. Besides, the IC50 in assay [1] (Mus musculus, RAW264.7, pure compound, read-out: IC50 in IL1 β-assay) came out at 2 µM; in assay [2] (setting [4]) it was 17 µM; in assay [3] (setting [4]), 4 µM. Also, the COX2 % down-regulation in assay [2] (1 μM) was −73.5 ± 20.5%; in assay [2] (5 μM), 19.0 ± 27.1%; in assay [2] (10 μM), 28.3 ± 15.0%; in assay [2] (20 μM), 99.5 ± 0.7%; in assay [2] (40 μM), 100.0 ± 0.0%; in assay [2] (80 μM), 100.0 ± 0.0%. The iNOS % down-regulation is 2.0 ± 7.1% in assay [3] (1 μM); 69.8 ± 21.1% in assay [3] (5 μM); 81.7 ± 5.5% in assay [3] (10 μM); 99.5 ± 0.7% in assay [3] (20 μM); 99.5 ± 0.7% in assay [3] (40 μM); 99.5 ± 0.7% in assay [3] (80 μM).
For the compound `S=C=Nc1ccccc1` [Phenyl], the values for the IL1β % down-regulation in assay [1] (5 μM) and in assay [1] (10 μM) were 47% and 59%, respectively. In addition, the COX2 % down-regulation entry in assay [2] (5 μM) is recorded as “Up-regulation”; in assay [2] (10 μM), 3%. The iNOS % down-regulation amounted to 31% in assay [3] (5 μM) and 35% in assay [3] (10 μM).
With `CC(C)(C)N=C=S` [Tert-butyl], the IL1β % down-regulation in assay [1] (5 μM) stood at 44%; in assay [1] (10 μM) it was 61%. For the same compound, the COX2 % down-regulation entry in assay [2] (5 μM) and in assay [2] (10 μM) was “Up-regulation” each time. The iNOS % down-regulation in assay [3] (5 μM) was determined as 3%; in assay [3] (10 μM), 0%.
For the compound `CS(=O)(=O)c1ccc(C2=C(c3ccccc3)C(=O)OC2)cc1` [rofecoxib], the IL1β % down-regulation is 18% in assay [1] (1 μM), 10% in assay [1] (5 μM), 12% in assay [1] (10 μM) and 15% in assay [1] (20 μM). For the same compound, the COX2 % down-regulation in assay [2] (1 μM) was −52%; in assay [2] (5 μM) it was 8%; in assay [2] (10 μM) it was 22%; in assay [2] (20 μM), 25%. Besides, the iNOS % down-regulation in assay [3] (1 μM) came to 35%; in assay [3] (5 μM) it was 37%; in assay [3] (10 μM) it was 68%; in assay [3] (20 μM) it was 45%.
